According to patent US20140112886A1, “DINUCLEOTIDE COMPOUNDS FOR HCV INFECTION” (IDENIX PHARMACEUTICALS, INC., priority 2012, published 2014):

Assays:
[1] = in vitro; details: human
[2] = tested on: HCV genotype 1b replicon; test: microbe, parasite or virus in culture; assay type: cell-based; details: Hepatitis C virus, 72 h, read-out: HCV Replicon EC50
[3] = Cytotoxicity evaluation, CellTiter-Blue Cell Viability Assay; details: human, Zluc cells (HCV replicon cells)

With CCOc1nc(N)nc2c1ncn2[C@@H]1O[C@H](COP(=O)(NCCNP(=O)(OC[C@H]2O[C@@H](n3cnc4c(OC)nc(N)nc43)[C@](C)(O)[C@@H]2O)Oc2ccccc2)Oc2ccccc2)[C@@H](O)[C@@]1(C)F (stereo partly shown) [Compound 5] the CC50 [1] was over 50 µM and the EC50 [2] was over 10 µM.

CCOc1nc(N)nc2c1ncn2[C@@H]1O[C@@H]2COP(=O)(Oc3cccc(OP4(=O)OC[C@H]5O[C@@H](n6ccc(OC)nc6=O)[C@](C)(F)[C@@H]5O4)c3)O[C@H]2[C@@]1(C)F (stereo partly shown) [Compound 10] showed a CC50 [1] of over 50 µM and an EC50 [2] of under 0.25 µM.

Work on CCOc1nc(N)nc2c1ncn2[C@@H]1OC(COP2(=O)OCC3(CO2)COP(=O)(OCC2O[C@@H](n4cnc5c(OCC)nc(N)nc54)[C@](C)(F)[C@@H]2O)OC3)[C@@H](O)[C@@]1(C)F (stereo partly shown) [Compound 7] yielded a CC50 [1] of over 50 µM and an EC50 [2] of over 10 µM.

In the case of CCOc1nc(N)nc2c1ncn2[C@@H]1O[C@@H]2COP(=O)(NCCNP3(=O)OC[C@H]4O[C@@H](n5cnc6c(OCC)nc(N)nc65)[C@](C)(F)[C@@H]4O3)O[C@H]2[C@@]1(C)F (mixture of isomers) [Compound 3], the CC50 at 72 h [3] is reported as over 50 µM and the EC50 [2] is reported as 1 to 10 µM.

CCOc1nc(N)nc2c1ncn2[C@@H]1O[C@@H]2COP(=O)(Oc3cccc(OP4(=O)OC[C@H]5O[C@@H](n6cnc7c(OCC)nc(N)nc76)[C@](C)(O)[C@@H]5O4)c3)O[C@H]2[C@@]1(C)O (stereo partly shown) [Compound 12] gave a CC50 [1] of over 50 µM and an EC50 [2] of 0.25 to 1 µM.

For CCOc1nc(N)nc2c1ncn2[C@@H]1O[C@@H]2COP(=O)(OC3CCC(OP4(=O)OC[C@H]5O[C@@H](n6cnc7c(OCC)nc(N)nc76)[C@](C)(F)[C@@H]5O4)CC3)O[C@H]2[C@@]1(C)F (stereo partly shown) [Compound 13], the CC50 [1] was over 50 µM and the EC50 [2] was 1 to 10 µM.

In the case of COc1nc(N)nc2c1ncn2[C@@H]1O[C@H](COP(=O)(NCCNP(=O)(OC[C@H]2O[C@@H](n3cnc4c(OC)nc(N)nc43)[C@](C)(O)[C@@H]2O)Oc2ccccc2)Oc2ccccc2)[C@@H](O)[C@@]1(C)O (stereo partly shown) [Compound 6], the CC50 [1] is reported as over 50 µM and the EC50 [2] is reported as over 10 µM.

Compound CCOc1nc(N)nc2c1ncn2[C@@H]1O[C@H](COP(=O)(Oc2ccccc2)N2CCN(P(=O)(OC[C@H]3O[C@@H](n4cnc5c(OC)nc(N)nc54)[C@](C)(O)[C@@H]3O)Oc3ccccc3)CC2)[C@@H](O)[C@@]1(C)F (stereo partly shown) [Compound 4] has a CC50 [1] of over 50 µM and an EC50 [2] of over 10 µM.

For CCOc1nc(N)nc2c1ncn2[C@@H]1O[C@@H]2COP(=O)(Oc3cccc(OP4(=O)OC[C@H]5O[C@@H](n6ccc(=O)[nH]c6=O)[C@](C)(F)[C@@H]5O4)c3)O[C@H]2[C@@]1(C)F (stereo partly shown) [Compound 8], the CC50 [1] was over 50 µM and the EC50 [2] was under 0.25 µM.

For CCOc1nc(N)nc2c1ncn2[C@@H]1O[C@@H]2COP(=O)(Oc3cccc(OP4(=O)OC[C@H]5O[C@@H](n6cnc7c(OCC)nc(N)nc76)[C@](C)(F)[C@@H]5O4)c3)O[C@H]2[C@@]1(C)O (stereo partly shown) [Compound 9], the CC50 [1] was over 50 µM and the EC50 [2] was under 0.25 µM.

In the case of CCOc1nc(N)nc2c1ncn2[C@@H]1O[C@@H]2COP(=O)(NCCCCCCNP3(=O)OC[C@H]4O[C@@H](n5cnc6c(OCC)nc(N)nc65)[C@](C)(F)[C@@H]4O3)O[C@H]2[C@@]1(C)F (stereo partly shown) [Compound 14], the CC50 at 72 h [3] is reported as over 50 µM and the EC50 [2] is reported as 1 to 10 µM.
